Laboratory results from article PMC3951181, “Rosamines Targeting the Cancer Oxidative Phosphorylation Pathway” (PLoS ONE, 2014).

Assays:
HSC-2 cells = assay: JC-1 analysis of mitochondrial membrane potential; format: cell-based, human; conditions: for cell population with mitochondrial transmembrane potential loss: 0.1 µM, untreated control about 8% at 8 h
Procedure: The mitochondrial membrane potential was measured based on the potential–dependent accumulation of the cationic JC-1 dye which results in a shift of fluorescence emission from green (∼525 nm) to red (∼590 nm) due to the formation of J-aggregates. Therefore, mitochondrial depolarization is indicated by a decrease in the red/green fluorescence intensity ratio. Briefly, cells were collected and suspended in 1 ml warm media at approximately 1×10^6 cell/ml. In a control tube, 1 µl of 50 mM CCCP was added and incubated at 37°C for 5 min. Then, 10 µl of 200 µM JC-1 was added into the cells and incubated at 37°C for 30 min. Cells were washed twice with warm PBS, resuspended in 500 µl of PBS and analyzed on a FACSCalibur flow cytometer using 488 nm excitation with 530/30 nm and 585/42 nm bandpass emission filters.
Meanwhile, the mitochondrial transmembrane potential loss was more prominent in HSC-2 cells treated with 5 at 0.1 µM. Approximately 21% (P<0.05) of the cell population was affected in the first hour and the percentage increased drastically to 34% in 8 h. For the untreated control cells, the population of depolarized cells at 8 h remained at approximately 8%. […] CCCP is an oxidative phosphorylation decoupling agent which acts as a positive control for the experiment.

[1] = system: HSC-2 oral cavity human squamous carcinoma cells; assay: MTT cell viability assay, 48 h; format: cell-based; conditions: 48 h post-treatment, mean ± SD
Procedure: (§1) MCF-7 breast carcinoma and HCT-116 colon carcinoma cell lines were obtained from American Tissue Culture Collection (Virginia, USA) and maintained in RPMI 1640 medium supplemented with 10% FBS. HSC-2 oral cavity human squamous carcinoma cells were obtained from Health Science Research Resources Bank (Japan). HK-1, a previously characterized nasopharyngeal squamous carcinoma cells is a gift by Prof. Wong Y.C. from the University of Hong Kong. Both cell lines were grown in MEM medium supplemented with 10% FBS. For cell viability assay, cells at 4000 cells/well in 80 µl of medium were inoculated in 96-well plates and were allowed to adhere overnight. Cells were then treated with each compound at concentrations ranging from 0.001–10 µM giving the final volume of 100 µl in each well. At the end of incubation period, 15 µl of 5.0 mg/ml MTT in phosphate buffered saline (PBS) was added and incubated for 4 h. Medium and excessive MTT were aspirated and the resulting formazan was solubilized with 100 µl of dimethyl sulfoxide. Absorbance was read at 570 nm with SpectraMax M4 microplate spectrophotometer (Molecular Devices, CA).
(§2) The in vitro antitumor activity of rosamines was assessed using a 48 h endpoint cell viability methylthiazolyldiphenyl-tetrazolium bromide (MTT) assay against a panel of solid human tumor cell lines including breast carcinoma (MCF-7), colon carcinoma (HCT-116), oral squamous cell carcinoma (HSC-2) and nasopharyngeal carcinoma (HK-1). […] Within the halide series, cytotoxicities increase in the following order 4>3>[…] (Cl>Br>I), although not statistically significant (P>0.05).

MCF-7 breast carcinoma = assay: MTT cell viability assay, 48 h; format: cell-based; conditions: Homo sapiens, MCF7, 48 h post-treatment, mean ± SD
Procedure: as §1, §2

HCT-116 colon carcinoma = assay: MTT cell viability assay, 48 h; format: cell-based; conditions: Homo sapiens, 48 h post-treatment, mean ± SD
Procedure: as §1, §2

[2] = system: HK-1 nasopharyngeal squamous carcinoma cells; assay: MTT cell viability assay, 48 h; format: cell-based; conditions: Homo sapiens, 48 h post-treatment, mean ± SD
Procedure: as §1, §2

[3] = system: panel of solid human tumor cell lines (MCF-7, HCT-116, HSC-2, HK-1); assay: MTT cell viability assay, panel of cancer cell lines; format: cell-based; conditions: mean over MCF-7, HCT-116, HSC-2, HK-1
Procedure: as §1, §2

Complex I = assay: Immunocapture ELISA microplate enzyme activity assay; format: biochemical; conditions: mouse liver mitochondria extract; 0.01–10 µM
Complex II = Complex II (Mus musculus, UniProt Q8K2B3+Q9CQA3+Q9CXV1+Q9CZB0); assay: as above; format: biochemical; conditions: mouse liver mitochondria extract; 0.01–10 µM
Complex IV = Complex IV (Mus musculus, UniProt P00397+P00405+P00416); assay: as above; conditions: read-out: IC50 Complex IV activity; mouse liver mitochondria extract; 0.01–10 µM
Procedure: (§3) Functional mitochondria were isolated from mouse liver by differential centrifugation method [14]. Briefly, a mouse (∼30 g) was starved overnight before sacrificed by cervical dislocation. The liver was harvested promptly and rinsed with ice-cold mitochondria isolation buffer (10 mM Tris-MOPS, 1 mM EGTA/Tris, 0.2 M sucrose, pH 7.4) until blood-free. The liver was then cut into small pieces in a beaker using scissors while keeping in an ice-bath. The buffer was replaced with 5 ml of fresh isolation buffer and the liver was homogenized with a Polytron probe (Ultra-Turrax T8, Ika-Werke, Germany) until smooth. The homogenate was centrifuged at 1000 g for 15 min at 4°C. The pellet was discarded and the supernatant was centrifuged at 12000 g for 15 min at 4°C to pellet the mitochondria. The mitochondria were washed twice by resuspending in 4 volumes of isolation buffer containing 1× protease cocktail inhibitor. The concentration of the mitochondrial protein was determined using the Bradford (Biorad protein assay) method. […]
(§4) In general, plate pre-coated with appropriate immunocapture antibody was incubated with mitochondria extract at recommended concentration to allow immobilization of their respective complexes. Complexes activity was measured by addition of substrates solution mix provided by the kit and compound was added at concentration ranging from 0.01–10 µM in triplicate. […]

[4] = system: panel of solid human tumor cell lines (MCF-7, HCT-116, HSC-2, HK-1); set-up: method as in PMID 19387338; conditions: anticancer activity in cellular assays; previous study; cited from earlier work
ATP synthase = ATP synthase (Mus musculus, UniProt P56480+Q03265); assay: Immunocapture ELISA microplate enzyme activity assay; conditions: read-out: IC50 ATP synthase activity; mouse liver mitochondria extract; 0.01–10 µM
Procedure: as §3, §4

[5] = system: NCI-60 human tumor cell lines; assay: NCI-60 screen, sulforhodamine B, whole panel; format: cell-based; conditions: overall value for the NCI-60 cell lines screen; for GI50: Homo sapiens
Procedure: NCI-60 cell panel screening was performed by the NCI/National Institutes of Health developmental therapeutics program (Bethesda, US). This platform allows the determination of growth inhibitory profiles of test compounds on 60 different human cancer cell lines, representing leukemia, melanoma and cancers of the lung, colon, central nervous system, ovary, breast, prostate, and renal subpanel. Sulforhodamine B assay was used to assess the cytotoxicity of test agents in a panel of 60 cell lines. Briefly, the human tumor cell lines of the cancer screening panel were grown in RPMI 1640 medium containing 5% FBS and 2 mM L-glutamine. For a typical screening experiment, cells were inoculated into 96 well microtiter plates in 100 µl at plating densities depending on the doubling time of individual cell lines. After cell inoculation, the microtiter plates are incubated at 37°C, 5% CO2 and 100% relative humidity for 24 h. Following incubation, aliquots of 100 µl of compound at different dilutions were added to the appropriate microtiter wells and were further incubated for 48 h. At the assay end-point, cells were fixed with trichloroacetic acid followed by Sulforhodamine B staining for cellular protein content. Sulforhodamine B absorbance was read at a wavelength of 515 nm as a measurement of cell density.

[6] = Body weight and adverse effects in treated mice; format: in vivo
Procedure: Tumor allografts were initiated by subcutaneous injection of 5×10^5 4T1 mouse mammary carcinoma in 0.1 ml RPMI 1640 media into the inguinal mammary fat-pads of mice. Tumor growth was monitored and treatments were initiated when tumors reached volume of approximately 200 mm^3. To assess the tumor growth inhibition, 4T1 tumor bearing mice were randomized into groups with at least eight animals per group. […] For control group, normal saline was given. The animal weights and tumor volume were measured three times weekly for 14 d. The tumor volume was calculated using the equation: (length×width^2)/2 and relative tumor volume (RTV) was calculated for every tumor volume at any given time (VT) against the tumor volume at staging day (V0) using the equation: VT/V0. The RTV – time profile for each group was plotted and tumor growth delay in attaining a specified number of doublings compared to control was determined, [19]. Results were expressed as median ±95% confidence interval (n = 8).
Meanwhile, the terminal percent test/control (% T/C) values calculated at the end of experiment were 72% and 66% in mice receiving 5 mg/kg and 3 mg/kg (q2d×6) respectively. The antitumor efficacy of 5 is minimal as the % T/C attained after treatment had ended is not ≤40% activity, the minimal rating for a compound to be considered active. […]

[7] = system: 4T1 mouse mammary carcinoma; assay: In vivo antitumor efficacy, tumor allograft; set-up: species or system female BALB/c mice; conditions: for median day for 4T1 tumor in attaining two-doubling growth (RTV = 4): control approximately 9 days; for terminal percent test/control (% T/C): end of experiment (day 14)
Procedure: All animal experiments were conducted in accordance with protocols reviewed and approved by Dr. Haji Azizuddin Bin Haji Kamaruddin, Laboratory Animal Centre (LAC) Animal Care and Use Committee of Faculty of Medicine, University of Malaya (reference number FAR/14/07/2010/LSH). Female BALB/c mice aged between 6–8 weeks with a minimum weight of 17 g were maintained in a controlled environment of 12 h light-dark cycles with free access to food (standard pellet diet purchased from Altromin International, Lage, Germany) and purified water. Female mice were used because the hormonal environment essential for development of implanted 4TI mouse mammary carcinoma would be present.
Tumor allografts were initiated by subcutaneous injection of 5×10^5 4T1 mouse mammary carcinoma in 0.1 ml RPMI 1640 media into the inguinal mammary fat-pads of mice. Tumor growth was monitored and treatments were initiated when tumors reached volume of approximately 200 mm^3. To assess the tumor growth inhibition, 4T1 tumor bearing mice were randomized into groups with at least eight animals per group. Compound 5 was prepared at 0.3 mg/ml in normal saline and treatment was administered intravenously at 5 mg/kg on staging day or 3 mg/kg every other day for six treatments (q2dx6). For control group, normal saline was given. The animal weights and tumor volume were measured three times weekly for 14 d. The tumor volume was calculated using the equation: (length×width^2)/2 and relative tumor volume (RTV) was calculated for every tumor volume at any given time (VT) against the tumor volume at staging day (V0) using the equation: VT/V0. The RTV – time profile for each group was plotted and tumor growth delay in attaining a specified number of doublings compared to control was determined, [19]. Results were expressed as median ±95% confidence interval (n = 8).

[8] = Solubility in aqueous media for treatment stock; format: physicochemical; conditions: reconstitution of treatment stock at 10 mM
Procedure: Compounds 3, 4 and 6 were synthesized to test if meso-replacement with 4-bromobenzene 3, 4-chlorobenzene 4 or 2-furyl 6 groups would affect the anticancer activity. In addition, the 4-iodobenzene 7 or 2-thiofuran meso substituents 8 and unsymmetrical piperidine/[…] amine substituents were synthesized and investigated. Rosamines 1–4 and 7 were not appreciably water-soluble so they were reconstituted in DMSO at 10 mM as treatment stock.

Sequence of Complex II (Q8K2B3 43-664): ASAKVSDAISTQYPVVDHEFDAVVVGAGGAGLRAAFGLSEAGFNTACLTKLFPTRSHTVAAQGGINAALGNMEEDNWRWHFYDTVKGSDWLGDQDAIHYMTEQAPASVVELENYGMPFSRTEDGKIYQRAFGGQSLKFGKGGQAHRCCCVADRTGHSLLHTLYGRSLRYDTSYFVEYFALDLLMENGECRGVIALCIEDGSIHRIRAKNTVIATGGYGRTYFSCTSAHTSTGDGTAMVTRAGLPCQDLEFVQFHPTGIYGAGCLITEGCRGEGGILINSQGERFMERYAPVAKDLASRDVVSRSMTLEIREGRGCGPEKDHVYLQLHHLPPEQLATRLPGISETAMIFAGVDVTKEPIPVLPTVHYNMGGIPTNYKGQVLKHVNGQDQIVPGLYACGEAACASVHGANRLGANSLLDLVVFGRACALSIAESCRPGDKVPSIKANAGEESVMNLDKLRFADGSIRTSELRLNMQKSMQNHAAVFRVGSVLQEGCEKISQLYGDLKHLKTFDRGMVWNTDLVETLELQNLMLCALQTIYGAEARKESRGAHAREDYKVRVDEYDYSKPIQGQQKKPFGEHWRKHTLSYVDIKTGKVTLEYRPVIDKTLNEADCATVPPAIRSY
Sequence of Complex II (Q9CQA3 31-282): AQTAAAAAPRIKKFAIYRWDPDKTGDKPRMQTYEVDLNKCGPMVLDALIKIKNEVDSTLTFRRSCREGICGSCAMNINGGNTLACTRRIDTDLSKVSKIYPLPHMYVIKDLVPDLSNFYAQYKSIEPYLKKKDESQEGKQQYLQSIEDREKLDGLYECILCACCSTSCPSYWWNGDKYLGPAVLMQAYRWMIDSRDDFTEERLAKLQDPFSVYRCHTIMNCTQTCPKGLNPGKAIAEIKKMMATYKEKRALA
Sequence of Complex II (Q9CZB0 30-169): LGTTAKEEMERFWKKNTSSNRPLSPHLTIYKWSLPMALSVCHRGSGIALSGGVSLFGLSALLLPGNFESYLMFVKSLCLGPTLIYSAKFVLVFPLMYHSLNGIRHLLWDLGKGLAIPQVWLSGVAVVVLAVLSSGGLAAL
Sequence of Complex II (Q9CXV1 57-159): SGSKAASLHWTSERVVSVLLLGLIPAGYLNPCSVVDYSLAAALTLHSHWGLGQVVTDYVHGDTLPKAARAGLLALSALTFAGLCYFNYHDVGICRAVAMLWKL

SMILES | IC50 [1] | IC50 (MCF-7 breast carcinoma) | IC50 (HCT-116 colon carcinoma) | IC50 [2] | IC50 [3] | water solubility [8] | also measured
N#CC(C#N)=NNc1cccc(Cl)c1 [CCCP, Carbonyl cyanide 3-chlorophenylhydrazone, reference compound] |  |  |  |  |  |  | cell population with loss of membrane potential (HSC-2 cells; 5 µM for 5 min, positive control): 70%
c1ccc(-c2c3ccc(=[N+]4CCCCC4)cc-3oc3cc(N4CCCCC4)ccc23)cc1 [Rosamine 1] | 0.09 µM | 1.2 ± 0.7 µM | 0.6 ± 0.41 µM | 0.61 ± 0.07 µM | 0.63 µM |  | 
Ic1ccc(-c2c3ccc(=[N+]4CCCCC4)cc-3oc3cc(N4CCCCC4)ccc23)cc1 [Rosamine 2] | 0.35 ± 0.05 µM | 0.59 ± 0.12 µM | 0.39 ± 0.07 µM | 0.29 ± 0.03 µM | 0.41 µM |  | IC50 (Complex I): > 10 µM; IC50 Complex II activity (Complex II): did not reach 50% up to maximum concentrations studied; IC50 (Complex IV): > 10 µM; cell population with mitochondrial transmembrane potential loss (HSC-2 cells; 8 h): 19%; cell population with mitochondrial transmembrane potential loss (HSC-2 cells; within 1 h after treatment): 9%; fold more active than phenyl substituted compound 1 [4]: 5 fold; IC50 (ATP synthase): 3.9 ± 0.3 µM
Brc1ccc(-c2c3ccc(=[N+]4CCCCC4)cc-3oc3cc(N4CCCCC4)ccc23)cc1 [Rosamine 3, 4-Bromobenzene Rosamine] | 0.19 ± 0.11 µM | 0.29 ± 0.04 µM | 0.3 ± 0.08 µM | 0.34 µM | 0.28 µM |  | 
Clc1ccc(-c2c3ccc(=[N+]4CCCCC4)cc-3oc3cc(N4CCCCC4)ccc23)cc1 [Rosamine 4, 4-Chlorobenzene Rosamine] | 0.09 ± 0.01 µM | 0.15 ± 0.04 µM | 0.22 ± 0.14 µM | 0.25 ± 0.01 µM | 0.18 µM |  | GI50 [5]: 0.1 µM; Log10GI50 [5]: −7
c1csc(-c2c3ccc(=[N+]4CCCCC4)cc-3oc3cc(N4CCCCC4)ccc23)c1 [Rosamine 5] | 0.09 ± 0.01 µM | 0.18 ± 0.02 µM | 0.07 ± 0.02 µM | 0.1 µM | 0.11 µM | readily solubilized in aqueous media | IC50 (Complex I): > 10 µM; GI50 [5]: 0.1 µM; Log10GI50 [5]: −7; IC50 (Complex II): 9.6 ± 0.1 µM; IC50 (Complex IV): > 10 µM; body weight loss ([6]; 4T1 tumor bearing mice, 5 mg/kg or 3 mg/kg (q2d×6) i.v., 14 d): ≤ 15%; adverse effects ([6]; mice, 10 mg/kg dose): unacceptable adverse effects such as weight loss, diarrhea and sudden death; median day for 4T1 tumor in attaining two-doubling growth (RTV = 4) ([7]; 3 mg/kg i.v. q2d×6): ~13 days; terminal percent test/control (% T/C) ([7]; 3 mg/kg i.v. q2d×6): 66%; two-doubling tumor growth delay (T-C)/C ([7]; 5 mg/kg single bolus i.v.): 22%; median day for 4T1 tumor in attaining two-doubling growth (RTV = 4) ([7]; 5 mg/kg single bolus i.v.): ~11 days; terminal percent test/control (% T/C) ([7]; 5 mg/kg single bolus i.v.): 72%; cell population with mitochondrial transmembrane potential loss (HSC-2 cells; 8 h): 34%; cell population with mitochondrial transmembrane potential loss (HSC-2 cells; within 1 h after treatment): Approximately 21%; fold more active than phenyl substituted compound 1 [4]: 5 fold; IC50 (ATP synthase): 3 ± 0.8 µM
c1coc(-c2c3ccc(=[N+]4CCCCC4)cc-3oc3cc(N4CCCCC4)ccc23)c1 [Rosamine 6, Furan Rosamine] | 0.09 µM | 0.31 ± 0.14 µM | 0.1 ± 0.03 µM | 0.31 ± 0.08 µM | 0.2 µM | readily solubilized in aqueous media | 
Ic1ccc(-c2c3ccc(=[N+]4CCOCC4)cc-3oc3cc(N4CCCCC4)ccc23)cc1 [Rosamine 7, Unsymmetrical 4-Iodophenyl Rosamine] | 0.22 ± 0.1 µM | 0.26 ± 0.07 µM | 0.24 ± 0.07 µM | 0.44 ± 0.01 µM | 0.29 µM |  | 
c1csc(-c2c3ccc(=[N+]4CCOCC4)cc-3oc3cc(N4CCCCC4)ccc23)c1 [Rosamine 8, Unsymmetrical Thiofuryl Rosamine] | 0.22 ± 0.11 µM | 0.17 ± 0.1 µM | 0.07 ± 0.02 µM | 0.53 µM | 0.25 µM | readily solubilized in aqueous media | 
